Experimental data as given in paper PMC9851200, “Multiparameter phenotypic screening for endogenous TFEB and TFE3 translocation identifies novel chemical series modulating lysosome function” (Autophagy, 2022).
Read-outs that look alike come from different tables or passages of the source.

What was measured:
Assay in all cases: biochemical
Format in all cases: binding
[1] = molecular target: T1, cellular kinases of SH-SY5Y cells (Homo sapiens, UniProt Q13233); details: 2µM; SH-SY5Y cells; Labeling Site Lys2; DVKGANLLIDSTGQR; read-out: KiNativ in-cell binding, % Inhibition, MAP3K1
T1 construct: endogenous in cells; host or cells: SH-SY5Y
Text: (§1) As KINOMEscan is an in vitro assay, and as different cell types have variable kinase expression profiles we sought to determine the kinase binding profile in our SH-SY5Y TFEB-relocalization cell model. […] Bound kinases were pulled down and analyzed by mass spectrometry to determine the in situ kinase binding profile for each compound.

[2] = molecular target: cellular kinases of SH-SY5Y cells (Homo sapiens, UniProt Q13464); details: 2µM; SH-SY5Y cells; Labeling Site Other; KLQLELNQER; read-out: KiNativ in-cell binding, % Inhibition, ROCK1
Text: as §1

[3] = molecular target: cellular kinases of SH-SY5Y cells (Homo sapiens, UniProt P54760); details: 2µM; SH-SY5Y cells; Labeling Site Activation Loop; FLEENSSDPTYTSSLGGKIPIR; read-out: KiNativ in-cell binding, % Inhibition, EphB4
Text: as §1

[4] = molecular target: T2, cellular kinases of SH-SY5Y cells (Homo sapiens, UniProt O75063); details: 2µM; SH-SY5Y cells; Labeling Site ATP; ETEPACADGDIMEGSVTLWLPDVWPLQKHR; read-out: KiNativ in-cell binding, % Inhibition, FAM20B
T2 construct: endogenous in cells; host or cells: SH-SY5Y
Text: as §1

[5] = molecular target: cellular kinases of SH-SY5Y cells (Homo sapiens, UniProt Q99683); details: 2µM; SH-SY5Y cells; Labeling Site Lys2; DIKGDNVLINTYSGVLK; read-out: KiNativ in-cell binding, % Inhibition, MAP3K5
Text: as §1

[6] = molecular target: T3, cellular kinases of SH-SY5Y cells (Homo sapiens, UniProt Q52WX2); details: 2µM; SH-SY5Y cells; Labeling Site Lys2; DIKPENVLLFDR; read-out: KiNativ in-cell binding, % Inhibition, SBK1/SBK
T3 construct: endogenous in cells; host or cells: SH-SY5Y
Text: as §1

[7] = molecular target: cellular kinases of SH-SY5Y cells (Homo sapiens, UniProt P50750); details: 2µM, SH-SY5Y cells, read-out: KiNativ in-cell binding, % Inhibition, CDK9
Text: as §1

[8] = molecular target: cellular kinases of SH-SY5Y cells (Homo sapiens, UniProt Q14012); details: 2µM; SH-SY5Y cells; labeling site Lys1; peptide LVAIKCIAK
Text: as §1

[9] = molecular target: cellular kinases of SH-SY5Y cells (Homo sapiens, UniProt P27448); details: 2µM; SH-SY5Y cells; Labeling Site Lys1; EVAIKIIDKTQLNPTSLQK; read-out: KiNativ in-cell binding, % Inhibition, MARK3
Text: as §1

[10] = molecular target: T4, cellular kinases of SH-SY5Y cells (Homo sapiens, UniProt Q9Y6E0); details: 2µM; SH-SY5Y cells; Labeling Site Lys2; DIKAANVLLSEHGEVK; read-out: KiNativ in-cell binding, % Inhibition, STK24/MST3
T4 construct: endogenous in cells; host or cells: SH-SY5Y
Text: as §1

[11] = molecular target: T5, cellular kinases of SH-SY5Y cells (Homo sapiens, UniProt Q14004); details: read-out: KiNativ in-cell binding, % Inhibition, CDK13/CHED
T5 construct: endogenous in cells; host or cells: SH-SY5Y
Text: as §1

[12] = molecular target: T6, cellular kinases of SH-SY5Y cells (Homo sapiens, UniProt P78356); details: 2µM; SH-SY5Y cells; Labeling Site ATP; AKDLPTFKDNDFLNEGQK; read-out: KiNativ in-cell binding, % Inhibition, PIP4K2B
T6 construct: endogenous in cells; host or cells: SH-SY5Y
Text: as §1

[13] = molecular target: T7, cellular kinases of SH-SY5Y cells (Homo sapiens, UniProt Q86SG6); details: 2µM; SH-SY5Y cells; Labeling Site Lys2; DLKTQNILLDK; read-out: KiNativ in-cell binding, % Inhibition, NEK9/NEK8
T7 construct: endogenous in cells; host or cells: SH-SY5Y
Text: as §1

[14] = molecular target: T8, cellular kinases of SH-SY5Y cells (Homo sapiens, UniProt Q9NYL2); details: 2µM; SH-SY5Y cells; Labeling Site Lys1; WISQDKEVAVKK; read-out: KiNativ in-cell binding, % Inhibition, MAP3K20/ZAK
T8 construct: endogenous in cells; host or cells: SH-SY5Y
Text: as §1

[15] = molecular target: cellular kinases of SH-SY5Y cells (Homo sapiens, UniProt P29323); details: 2µM; SH-SY5Y cells; Labeling Site Activation Loop; FLEDDTSDPTYTSALGGKIPIR; read-out: KiNativ in-cell binding, % Inhibition, EphB2
Text: as §1

[16] = molecular target: T9, cellular kinases of SH-SY5Y cells (Homo sapiens, UniProt Q9H2G2); details: 2µM, SH-SY5Y cells
T9 construct: endogenous in cells; host or cells: SH-SY5Y
Text: as §1

[17] = molecular target: T10, cellular kinases of SH-SY5Y cells (Homo sapiens, UniProt O14936); details: 2µM; SH-SY5Y cells; Labeling Site Lys1; ETGQQFAVKIVDVAK; read-out: KiNativ in-cell binding, % Inhibition, CASK
T10 construct: endogenous in cells; host or cells: SH-SY5Y
Text: as §1

[18] = molecular target: cellular kinases of SH-SY5Y cells (Homo sapiens, UniProt Q96Q15); details: 2µM, SH-SY5Y cells, Labeling Site ATP, read-out: KiNativ in-cell binding, % Inhibition, SMG1
Text: as §1

[19] = molecular target: T11, cellular kinases of SH-SY5Y cells (Homo sapiens, UniProt Q13177); details: 2µM; SH-SY5Y cells; Labeling Site Other; KNPQAVLDVLKFYDSNTVK; read-out: KiNativ in-cell binding, % Inhibition, PAK2
T11 construct: endogenous in cells; host or cells: SH-SY5Y
Text: as §1

[20] = molecular target: cellular kinases of SH-SY5Y cells (Homo sapiens, UniProt Q16584); details: 2µM; SH-SY5Y cells; labeling site Lys2; peptide DLKSNNILLLQPIESDDMEHK
Text: as §1

cellular kinases of SH-SY5Y cells (Homo sapiens, UniProt P50750), sequence (P50750 whole entry): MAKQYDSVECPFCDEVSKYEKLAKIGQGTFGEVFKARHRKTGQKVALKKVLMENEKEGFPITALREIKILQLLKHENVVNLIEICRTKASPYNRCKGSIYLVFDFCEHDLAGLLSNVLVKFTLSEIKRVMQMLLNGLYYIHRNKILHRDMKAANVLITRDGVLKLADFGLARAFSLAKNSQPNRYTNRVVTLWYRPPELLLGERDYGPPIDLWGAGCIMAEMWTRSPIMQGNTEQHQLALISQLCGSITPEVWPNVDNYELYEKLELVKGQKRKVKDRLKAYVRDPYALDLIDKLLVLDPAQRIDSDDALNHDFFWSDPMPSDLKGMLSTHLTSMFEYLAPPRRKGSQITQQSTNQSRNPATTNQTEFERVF
T9 sequence (Q9H2G2 whole entry): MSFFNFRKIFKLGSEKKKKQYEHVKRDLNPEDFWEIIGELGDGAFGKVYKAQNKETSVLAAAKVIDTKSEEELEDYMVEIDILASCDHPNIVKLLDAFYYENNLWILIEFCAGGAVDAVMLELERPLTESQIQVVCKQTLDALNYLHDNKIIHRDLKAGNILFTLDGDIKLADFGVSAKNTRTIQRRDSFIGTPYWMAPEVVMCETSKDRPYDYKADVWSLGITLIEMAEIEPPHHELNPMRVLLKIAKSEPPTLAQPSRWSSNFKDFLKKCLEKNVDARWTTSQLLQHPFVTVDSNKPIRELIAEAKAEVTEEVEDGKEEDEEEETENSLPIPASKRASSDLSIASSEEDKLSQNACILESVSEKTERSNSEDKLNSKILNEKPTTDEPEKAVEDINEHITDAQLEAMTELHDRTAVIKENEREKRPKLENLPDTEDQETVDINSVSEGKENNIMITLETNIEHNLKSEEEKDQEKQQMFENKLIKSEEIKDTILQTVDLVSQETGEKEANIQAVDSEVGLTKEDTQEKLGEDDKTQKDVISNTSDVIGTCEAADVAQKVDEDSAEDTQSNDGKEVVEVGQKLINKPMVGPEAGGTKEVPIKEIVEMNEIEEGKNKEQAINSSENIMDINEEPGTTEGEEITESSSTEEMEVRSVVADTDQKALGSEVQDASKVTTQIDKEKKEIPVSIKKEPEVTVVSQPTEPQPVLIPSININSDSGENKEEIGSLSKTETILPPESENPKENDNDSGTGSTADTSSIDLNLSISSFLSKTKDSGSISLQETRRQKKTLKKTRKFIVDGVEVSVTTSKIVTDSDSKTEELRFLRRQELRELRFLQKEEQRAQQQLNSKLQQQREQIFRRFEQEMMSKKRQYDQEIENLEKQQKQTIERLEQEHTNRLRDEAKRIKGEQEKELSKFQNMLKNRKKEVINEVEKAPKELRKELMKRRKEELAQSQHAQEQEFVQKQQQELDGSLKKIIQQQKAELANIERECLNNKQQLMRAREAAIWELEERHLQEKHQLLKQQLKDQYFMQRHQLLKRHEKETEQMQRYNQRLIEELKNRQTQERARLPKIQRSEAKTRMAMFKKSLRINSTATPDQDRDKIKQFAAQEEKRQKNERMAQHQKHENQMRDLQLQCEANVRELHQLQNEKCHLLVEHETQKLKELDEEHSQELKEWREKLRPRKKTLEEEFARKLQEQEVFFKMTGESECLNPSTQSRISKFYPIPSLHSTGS
T11 sequence (Q13177 whole entry): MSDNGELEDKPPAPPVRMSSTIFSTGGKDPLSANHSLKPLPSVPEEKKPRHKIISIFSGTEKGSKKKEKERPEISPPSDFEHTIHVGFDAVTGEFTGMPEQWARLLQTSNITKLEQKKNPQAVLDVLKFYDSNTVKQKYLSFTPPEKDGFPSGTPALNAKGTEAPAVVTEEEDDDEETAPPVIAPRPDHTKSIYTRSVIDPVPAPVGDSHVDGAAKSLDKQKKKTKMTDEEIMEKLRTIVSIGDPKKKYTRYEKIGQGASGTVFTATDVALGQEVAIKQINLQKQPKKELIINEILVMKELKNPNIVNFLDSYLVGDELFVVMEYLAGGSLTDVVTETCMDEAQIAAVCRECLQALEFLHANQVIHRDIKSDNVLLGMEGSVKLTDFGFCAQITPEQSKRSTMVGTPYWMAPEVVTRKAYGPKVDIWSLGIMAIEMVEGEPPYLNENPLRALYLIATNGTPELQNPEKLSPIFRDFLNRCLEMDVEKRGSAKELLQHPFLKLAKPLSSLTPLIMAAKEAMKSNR
T5 sequence (Q14004 whole entry): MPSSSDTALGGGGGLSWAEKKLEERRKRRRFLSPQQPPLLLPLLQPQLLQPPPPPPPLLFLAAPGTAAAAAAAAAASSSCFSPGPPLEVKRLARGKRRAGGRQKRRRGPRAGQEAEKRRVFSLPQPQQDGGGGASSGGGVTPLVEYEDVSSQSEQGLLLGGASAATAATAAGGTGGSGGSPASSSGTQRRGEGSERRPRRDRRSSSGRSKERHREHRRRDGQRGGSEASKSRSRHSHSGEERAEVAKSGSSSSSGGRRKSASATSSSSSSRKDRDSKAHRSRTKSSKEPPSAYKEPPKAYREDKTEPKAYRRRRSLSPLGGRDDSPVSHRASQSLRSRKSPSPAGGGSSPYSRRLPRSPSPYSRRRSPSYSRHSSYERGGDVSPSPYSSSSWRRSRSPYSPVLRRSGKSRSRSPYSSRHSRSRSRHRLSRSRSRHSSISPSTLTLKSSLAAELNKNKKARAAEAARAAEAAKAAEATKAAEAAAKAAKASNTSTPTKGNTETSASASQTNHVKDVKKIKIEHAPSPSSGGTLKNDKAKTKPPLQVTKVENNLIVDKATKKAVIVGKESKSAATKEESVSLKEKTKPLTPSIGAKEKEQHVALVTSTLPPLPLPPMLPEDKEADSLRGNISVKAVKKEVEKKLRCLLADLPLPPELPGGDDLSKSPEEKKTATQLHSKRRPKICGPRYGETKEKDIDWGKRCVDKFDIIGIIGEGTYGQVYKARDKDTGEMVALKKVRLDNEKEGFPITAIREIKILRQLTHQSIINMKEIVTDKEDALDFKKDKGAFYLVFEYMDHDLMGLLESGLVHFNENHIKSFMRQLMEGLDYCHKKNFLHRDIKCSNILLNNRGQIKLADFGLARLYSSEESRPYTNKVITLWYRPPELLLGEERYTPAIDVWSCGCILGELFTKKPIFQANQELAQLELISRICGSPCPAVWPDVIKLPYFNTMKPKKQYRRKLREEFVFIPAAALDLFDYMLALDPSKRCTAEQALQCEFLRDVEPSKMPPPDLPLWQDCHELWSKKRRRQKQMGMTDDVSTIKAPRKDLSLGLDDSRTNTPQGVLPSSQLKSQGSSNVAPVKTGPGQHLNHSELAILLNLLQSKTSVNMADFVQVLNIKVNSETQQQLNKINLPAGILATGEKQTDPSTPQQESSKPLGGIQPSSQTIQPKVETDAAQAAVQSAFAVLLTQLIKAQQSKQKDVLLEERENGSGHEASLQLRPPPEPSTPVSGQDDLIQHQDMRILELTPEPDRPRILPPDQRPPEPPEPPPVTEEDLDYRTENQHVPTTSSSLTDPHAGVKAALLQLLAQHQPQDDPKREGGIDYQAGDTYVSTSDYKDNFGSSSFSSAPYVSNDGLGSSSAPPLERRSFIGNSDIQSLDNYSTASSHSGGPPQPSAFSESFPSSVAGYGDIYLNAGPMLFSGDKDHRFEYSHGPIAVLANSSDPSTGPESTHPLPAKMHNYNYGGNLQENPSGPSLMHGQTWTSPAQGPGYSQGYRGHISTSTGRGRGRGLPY
T7 sequence (Q86SG6 whole entry): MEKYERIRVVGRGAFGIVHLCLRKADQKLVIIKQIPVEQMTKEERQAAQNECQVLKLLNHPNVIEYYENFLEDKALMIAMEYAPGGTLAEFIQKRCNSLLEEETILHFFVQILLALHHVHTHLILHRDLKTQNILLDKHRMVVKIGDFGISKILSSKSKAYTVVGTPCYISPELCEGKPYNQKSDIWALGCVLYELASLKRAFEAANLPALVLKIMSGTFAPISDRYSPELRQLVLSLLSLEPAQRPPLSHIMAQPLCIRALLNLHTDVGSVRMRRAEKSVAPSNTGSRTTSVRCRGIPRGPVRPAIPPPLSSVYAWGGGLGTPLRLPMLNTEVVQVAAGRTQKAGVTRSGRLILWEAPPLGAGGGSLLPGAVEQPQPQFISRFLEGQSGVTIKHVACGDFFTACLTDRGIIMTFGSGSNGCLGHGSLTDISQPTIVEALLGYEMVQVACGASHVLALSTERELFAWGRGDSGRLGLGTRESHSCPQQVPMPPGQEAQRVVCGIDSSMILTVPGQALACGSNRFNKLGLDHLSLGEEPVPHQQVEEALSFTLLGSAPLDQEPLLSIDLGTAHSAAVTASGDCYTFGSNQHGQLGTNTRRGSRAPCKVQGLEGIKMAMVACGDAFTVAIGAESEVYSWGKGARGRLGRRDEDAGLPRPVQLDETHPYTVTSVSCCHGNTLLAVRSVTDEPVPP
T2 sequence (O75063 whole entry): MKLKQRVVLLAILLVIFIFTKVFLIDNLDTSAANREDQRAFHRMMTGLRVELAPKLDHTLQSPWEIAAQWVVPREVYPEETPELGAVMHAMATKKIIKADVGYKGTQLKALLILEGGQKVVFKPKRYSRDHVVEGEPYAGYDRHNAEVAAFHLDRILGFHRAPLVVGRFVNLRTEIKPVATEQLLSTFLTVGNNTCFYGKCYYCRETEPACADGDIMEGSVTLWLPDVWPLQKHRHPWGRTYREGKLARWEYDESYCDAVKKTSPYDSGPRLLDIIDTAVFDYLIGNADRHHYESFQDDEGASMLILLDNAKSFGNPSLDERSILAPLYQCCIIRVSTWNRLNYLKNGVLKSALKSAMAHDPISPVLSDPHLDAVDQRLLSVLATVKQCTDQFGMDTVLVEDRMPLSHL

## Cc1cccc(-c2nc(Nc3ccc4ncsc4c3)c3ccccc3n2)n1 [NK140]
[1]
  inhibition at 2 µM: -7.7%
[2]
  inhibition at 2 µM: 1.3%
[3]
  inhibition at 2 µM: -33.5%
[4]
  inhibition at 2 µM: -39.2%
[5]
  inhibition at 2 µM: 18.7%
[6]
  inhibition at 2 µM: 3.5%
[7]; Labeling Site ATP Loop, IGQGTFGEVFKAR
  inhibition at 2 µM: 2.1%
[7]; Labeling Site Lys2, DMKAANVLITR
  inhibition at 2 µM: -6%
[8]
  KiNativ in-cell binding, CaMK1: -56.2
[9]
  inhibition at 2 µM: 18.5%
[10]
  inhibition at 2 µM: 28.7%
[11]
  inhibition at 2 µM: -3.7%
[12]
  inhibition at 2 µM: 27.3%
[13]
  inhibition at 2 µM: 15.8%
[14]
  inhibition at 2 µM: -2%
[15]
  inhibition at 2 µM: -8.7%
[16]; Labeling Site Lys1, AQNKETSVLAAAKVIDTK, read-out: KiNativ in-cell binding, % Inhibition, SLK (SLK OR FYN/SLK)
  inhibition at 2 µM: 16.4%
[16]; Labeling Site Lys2, DLKAGNILFTLDGDIK, read-out: KiNativ in-cell binding, % Inhibition, SLK
  inhibition at 2 µM: 26.7%
[17]
  inhibition at 2 µM: 43%
[18]; DTVTIHSVGGTITILPTKTKPK
  inhibition at 2 µM: 11.2%
[18]; SYPYLFKGLEDLHLDER
  inhibition at 2 µM: 43.7%
[19]
  inhibition at 2 µM: 42.4%
[20]
  KiNativ in-cell binding, MAP3K11: -55.2
